Where two headings read alike, the source gives them in different places.
What was measured:
Experiment in all cases: Etest MIC of indicator carbapenems on MH II agar without/with PMBN
Type in all cases: cell-based
E. aerogenes 1204048 = details: in µg/mL
Procedure: (§1) The determinations of antibiotic MIC were carried out on solid culture media with the Etest® method. To do this, Etest® strips (bioMérieux, France) were used: • Etest® Imipenem IM 32, and • Etest® Ertapenem ETP 32, and also solid culture media, differing from one another by virtue of their non-inhibitory concentrations of PMBN.
(§2) These solid culture media are prepared in Petri dishes (0=145 mm; V=50 ml) on a base of MH II Agar (Becton Dickinson®, United States), more or less supplemented with PMBN. The PMBN concentrations range from 0 up to concentrations equivalent to one fifth of the MIC of PMBN (⅕ MICPMBN).
(§3) Using a swab and the Retro C80™ rota-plater (bioMérieux, France), the culture media were inoculated with the bacteria, originating from an inoculum of 0.5 McFarland, prepared in 0.85% NaCl solution from colonies subcultured the day before on MH II agar.
(§4) The various Etest® strips are then deposited on the surface of the culture media. After 16 to 20 hours of incubation at 35° C., the MICS were read.
(§5) To do this, imipenem and ertapenem were used as indicator carbapenems. Non-inhibitory concentrations of PMBN, equivalent to concentrations of one tenth ( 1/10), one eighth (⅛) and one fifth (⅕) of the MIC of PMBN, were applied.
(§6) In the light of the MICPMBN values previously identified, very predominantly much higher than 300 μg/ml, the following standard concentrations were retained and applied to the bacterial strains to be tested: 50, 100, 150, 200 and 300 μg/ml.
(§7) By way of indicator carbapenems according to the invention, in addition to imipenem (IM) and ertapenem (ETP), meropenem (MP) was also tested. Like the other two antibiotics, meropenem was used in the form of Etest® strips (Etest® Meropenem MP 32 from the company bioMérieux, France).
(§8) The methods used to prepare the new culture media and to carry out the antibiotic-sensitivity tests are identical to those described above.

E. coli 1204043 = test system: E. coli 1204043
Procedure: as §1, §2, §3, §4, §5, §6, §7, §8

K. pneumoniae 1002015 = test system: K. pneumoniae 1002015
Procedure: as §1, §2, §3, §4, §5, §6, §7, §8

E. aerogenes 9203076 = test system: E. aerogenes 9203076
Procedure: as §1, §2, §3, §4, §5, §6, §7, §8

K. pneumoniae 1204034 = test system: K. pneumoniae 1204034
Procedure: as §1, §2, §3, §4, §5, §6, §7, §8

E. aerogenes 9306071 = test system: E. aerogenes 9306071
Procedure: as §1, §2, §3, §4, §5, §6, §7, §8

E. cloacae 9402034 = test system: E. cloacae 9402034
Procedure: as §1, §2, §3, §4, §5, §6, §7, §8

[1] = test system: K. pneumoniae 1108003 (KPC-3 producer)
Procedure: as §1, §2, §3, §4, §7, §8

[2] = test system: K. pneumoniae 1204039 (membrane impermeability)
Procedure: as §1, §2, §3, §4, §7, §8

[3] = test system: E. cloacae 1204058 (membrane impermeability); details: in µg/mL
Procedure: as §1, §2, §3, §4, §7, §8

E. coli SAB 100 (porin−) = details: Escherichia coli
Procedure: as §1, §2, §3, §4, §7, §8

[4] = test system: E. aerogenes 1204050 (membrane impermeability); details: in µg/mL
Procedure: as §1, §2, §3, §4, §7, §8

[5] = test system: E. cloacae 1204053 (membrane impermeability)
Procedure: as §1, §2, §3, §4, §7, §8

## C[C@@H](O)[C@H]1C(=O)N2C(C(=O)O)=C(S[C@@H]3CN[C@H](C(=O)Nc4cccc(C(=O)O)c4)C3)[C@H](C)[C@H]12 [ETP, ertapenem]
E. aerogenes 1204048; E. aerogenes 1204048 (membrane impermeability), [PMBN] 0, Table 4a
  MIC: >32
E. aerogenes 1204048; E. aerogenes 1204048 (membrane impermeability), [PMBN] 100, Table 4a
  MIC: 16
E. aerogenes 1204048; E. aerogenes 1204048 (membrane impermeability), [PMBN] 200, Table 4a
  MIC: 16
E. aerogenes 1204048; E. aerogenes 1204048 (membrane impermeability), [PMBN] 300, Table 4a
  MIC: 8
E. aerogenes 1204048; E. aerogenes 1204048, [PMBN] 0, Table 3
  MIC: 32
E. aerogenes 1204048; E. aerogenes 1204048, [PMBN] MIC/5
  MIC: 2
E. aerogenes 1204048; E. aerogenes 1204048, [PMBN] MIC/8
  MIC: 2
E. aerogenes 1204048; E. aerogenes 1204048, [PMBN] MIC/10
  MIC: 4
E. coli 1204043; E. coli 1204043 (membrane impermeability), [PMBN] 0, Table 4a, in µg/mL
  MIC: >32
E. coli 1204043; E. coli 1204043 (membrane impermeability), [PMBN] 100, Table 4a, in µg/mL
  MIC: 6
E. coli 1204043; E. coli 1204043 (membrane impermeability), [PMBN] 200, Table 4a, in µg/mL
  MIC: 2-4
E. coli 1204043; E. coli 1204043 (membrane impermeability), [PMBN] 300, Table 4a, in µg/mL
  MIC: 1.5
E. coli 1204043; E. coli 1204043, [PMBN] 0, Table 3, in µg/mL
  MIC: 32
E. coli 1204043; E. coli 1204043, [PMBN] MIC/5, in µg/mL
  MIC: 1
E. coli 1204043; E. coli 1204043, [PMBN] MIC/8, in µg/mL
  MIC: 2
E. coli 1204043; E. coli 1204043, [PMBN] MIC/10, in µg/mL
  MIC: 1
E. coli 1204043; Escherichia coli, 1204043, E. coli 1204043 (porin−), [PMBN] 0, Table 4, read-out: MIC
  MIC: > 32 µg/mL
E. coli 1204043; Escherichia coli, 1204043, E. coli 1204043 (porin−), [PMBN] 150 μg/ml, Table 4, read-out: MIC
  MIC: 0.38 µg/mL
E. coli 1204043; Escherichia coli, 1204043, E. coli 1204043 (porin−), [PMBN] 200 μg/ml, Table 4, read-out: MIC
  MIC: 0.19 µg/mL
K. pneumoniae 1002015; K. pneumoniae 1002015, [PMBN] 0, Table 3
  MIC: 32 µg/mL
K. pneumoniae 1002015; K. pneumoniae 1002015, [PMBN] MIC/5
  MIC: 1 µg/mL
K. pneumoniae 1002015; K. pneumoniae 1002015, [PMBN] MIC/8
  MIC: 2 µg/mL
K. pneumoniae 1002015; K. pneumoniae 1002015, [PMBN] MIC/10
  MIC: 4 µg/mL
K. pneumoniae 1002015; Klebsiella pneumoniae, 1002015, K. pneumoniae 1002015 (porin−), [PMBN] 0, Table 4, read-out: MIC
  MIC: 4 µg/mL
K. pneumoniae 1002015; Klebsiella pneumoniae, 1002015, K. pneumoniae 1002015 (porin−), [PMBN] 150 μg/ml, Table 4, read-out: MIC
  MIC: 0.5 µg/mL
K. pneumoniae 1002015; Klebsiella pneumoniae, 1002015, K. pneumoniae 1002015 (porin−), [PMBN] 200 μg/ml, Table 4, read-out: MIC
  MIC: 0.38 µg/mL
E. aerogenes 9203076; E. aerogenes 9203076 (membrane impermeability), [PMBN] 0, Table 4a, in µg/mL
  MIC: >32
E. aerogenes 9203076; E. aerogenes 9203076 (membrane impermeability), [PMBN] 100, Table 4a, in µg/mL
  MIC: 16
E. aerogenes 9203076; E. aerogenes 9203076 (membrane impermeability), [PMBN] 200, Table 4a, in µg/mL
  MIC: 12
E. aerogenes 9203076; E. aerogenes 9203076 (membrane impermeability), [PMBN] 300, Table 4a, in µg/mL
  MIC: 4
E. aerogenes 9203076; E. aerogenes 9203076, [PMBN] 0, Table 3, in µg/mL
  MIC: 32
E. aerogenes 9203076; E. aerogenes 9203076, [PMBN] MIC/5, in µg/mL
  MIC: 2
E. aerogenes 9203076; E. aerogenes 9203076, [PMBN] MIC/8, in µg/mL
  MIC: 4
E. aerogenes 9203076; E. aerogenes 9203076, [PMBN] MIC/10, in µg/mL
  MIC: 4
E. aerogenes 9203076; Klebsiella aerogenes, 9203076, E. aerogenes 9203076 (porin−), [PMBN] 0, Table 4, read-out: MIC
  MIC: 24 µg/mL
E. aerogenes 9203076; Klebsiella aerogenes, 9203076, E. aerogenes 9203076 (porin−), [PMBN] 150 μg/ml, Table 4, read-out: MIC
  MIC: 3 µg/mL
E. aerogenes 9203076; Klebsiella aerogenes, 9203076, E. aerogenes 9203076 (porin−), [PMBN] 200 μg/ml, Table 4, read-out: MIC
  MIC: 1.5 µg/mL
K. pneumoniae 1204034; K. pneumoniae 1204034 (membrane impermeability), [PMBN] 0, Table 4a
  MIC: > 32 µg/mL
K. pneumoniae 1204034; K. pneumoniae 1204034 (membrane impermeability), [PMBN] 100, Table 4a
  MIC: 12 µg/mL
K. pneumoniae 1204034; K. pneumoniae 1204034 (membrane impermeability), [PMBN] 200, Table 4a
  MIC: 3 µg/mL
K. pneumoniae 1204034; K. pneumoniae 1204034 (membrane impermeability), [PMBN] 300, Table 4a
  MIC: 2 µg/mL
K. pneumoniae 1204034; K. pneumoniae 1204034, [PMBN] 0, Table 3
  MIC: 64 µg/mL
K. pneumoniae 1204034; K. pneumoniae 1204034, [PMBN] MIC/5
  MIC: 4 µg/mL
K. pneumoniae 1204034; K. pneumoniae 1204034, [PMBN] MIC/8
  MIC: 4 µg/mL
K. pneumoniae 1204034; K. pneumoniae 1204034, [PMBN] MIC/10
  MIC: 8 µg/mL
K. pneumoniae 1204034; Klebsiella pneumoniae, 1204034, K. pneumoniae 1204034 (porin−), [PMBN] 0, Table 4, read-out: MIC
  MIC: > 32 µg/mL
K. pneumoniae 1204034; Klebsiella pneumoniae, 1204034, K. pneumoniae 1204034 (porin−), [PMBN] 150 μg/ml, Table 4, read-out: MIC
  MIC: 1.5 µg/mL
K. pneumoniae 1204034; Klebsiella pneumoniae, 1204034, K. pneumoniae 1204034 (porin−), [PMBN] 200 μg/ml, Table 4, read-out: MIC
  MIC: 1 µg/mL
E. aerogenes 9306071; E. aerogenes 9306071 (membrane impermeability), [PMBN] 0, Table 4a
  MIC: > 32 µg/mL
E. aerogenes 9306071; E. aerogenes 9306071 (membrane impermeability), [PMBN] 100, Table 4a
  MIC: 12 µg/mL
E. aerogenes 9306071; E. aerogenes 9306071 (membrane impermeability), [PMBN] 200, Table 4a
  MIC: 8 µg/mL
E. aerogenes 9306071; E. aerogenes 9306071 (membrane impermeability), [PMBN] 300, Table 4a
  MIC: 4 µg/mL
E. aerogenes 9306071; E. aerogenes 9306071, [PMBN] 0, Table 3
  MIC: 32 µg/mL
E. aerogenes 9306071; E. aerogenes 9306071, [PMBN] MIC/5
  MIC: 4 µg/mL
E. aerogenes 9306071; E. aerogenes 9306071, [PMBN] MIC/8
  MIC: 4 µg/mL
E. aerogenes 9306071; E. aerogenes 9306071, [PMBN] MIC/10
  MIC: 4 µg/mL
E. cloacae 9402034; E. cloacae 9402034 (membrane impermeability), [PMBN] 0, Table 4a
  MIC: > 32 µg/mL
E. cloacae 9402034; E. cloacae 9402034 (membrane impermeability), [PMBN] 100, Table 4a
  MIC: > 32 µg/mL
E. cloacae 9402034; E. cloacae 9402034 (membrane impermeability), [PMBN] 200, Table 4a
  MIC: 12 µg/mL
E. cloacae 9402034; E. cloacae 9402034 (membrane impermeability), [PMBN] 300, Table 4a
  MIC: 12 µg/mL
E. cloacae 9402034; E. cloacae 9402034, [PMBN] 0, Table 3
  MIC: 64 µg/mL
E. cloacae 9402034; E. cloacae 9402034, [PMBN] MIC/5
  MIC: 16 µg/mL
E. cloacae 9402034; E. cloacae 9402034, [PMBN] MIC/8
  MIC: 16 µg/mL
E. cloacae 9402034; E. cloacae 9402034, [PMBN] MIC/10
  MIC: 16 µg/mL
[1]; [PMBN] 0, Table 4a
  MIC: 8 µg/mL
[1]; [PMBN] 100, Table 4a
  MIC: 24 µg/mL
[1]; [PMBN] 200, Table 4a
  MIC: > 32 µg/mL
[1]; [PMBN] 300, Table 4a
  MIC: > 32 µg/mL
[2]; [PMBN] 0, Table 4a
  MIC: 2 µg/mL
[2]; [PMBN] 100, Table 4a
  MIC: 1.5 µg/mL
[2]; [PMBN] 200, Table 4a
  MIC: 1.5 µg/mL
[2]; [PMBN] 300, Table 4a
  MIC: 1 µg/mL
[3]; [PMBN] 0, Table 4a
  MIC: >32
[3]; [PMBN] 100, Table 4a
  MIC: 8-12
[3]; [PMBN] 300, Table 4a
  MIC: 0.75
E. coli SAB 100 (porin−); [PMBN] 0
  MIC: 1.5 µg/mL
E. coli SAB 100 (porin−); [PMBN] 50 μg/ml
  MIC: 0.19 µg/mL
E. coli SAB 100 (porin−); [PMBN] 100 μg/ml
  MIC: 0.19 µg/mL
E. coli SAB 100 (porin−); [PMBN] 150 μg/ml
  MIC: 0.125 µg/mL
E. coli SAB 100 (porin−); [PMBN] 200 μg/ml
  MIC: 0.125 µg/mL
[4]; [PMBN] 0, Table 4a
  MIC: >32
[4]; [PMBN] 100, Table 4a
  MIC: >32
[4]; [PMBN] 200, Table 4a
  MIC: >32
[4]; [PMBN] 300, Table 4a
  MIC: >32
[5]; [PMBN] 0, Table 4a
  MIC: > 32 µg/mL
[5]; [PMBN] 100, Table 4a
  MIC: > 32 µg/mL
[5]; [PMBN] 200, Table 4a
  MIC: > 32 µg/mL
[5]; [PMBN] 300, Table 4a
  MIC: 4 µg/mL
